These results are taken from patent US20220354949A1, “NOVEL COMPOUNDS” (XENIOPRO GmbH, priority 2018, published 2022).

Molecules are shown by their SMILES.

Holding throughout (format): cell-based
Assay [1] deals with HL-60 cells (human acute myeloid leukemia cells). Kind of assay: Proliferation assay (alamarBlue) with HL-60 cells. From the text: (§1) The antiproliferative activities of compounds falling under formula (Ia), (Ib) and (Ic), respectively, were investigated on cells or cell lines originating from a disorder of the haematopoietic system, including the myeloid cell compartment and the lymphoid cell compartment (T-cells and B-cells), the neuroendocrine system, the cervix, the breast, the ovaries, the lung, the gastrointestinal tract, and the mucosal epithelium, as well as from the skin epithelium and from the muscle. To this end, HL-60 cells, NB-4 cells, HH cells, RPMI-8402 cells, TANOUE cells, TT cells, HeLa cells, MDA-MB-231 cells, FU-OV-1 cells, LOU-NH91 cells, 23132/87 cells, CAL-27 cells, BHY cells, SCC-25 cells, A-431 cells, human primary epidermal keratinocytes (HPEK), and C2C12 cells were seeded into 96-well plates suitable for fluorescence assays (CORNING #3598) at following initial cell numbers: 1000 cells per well for HL-60; 1000 cells per well for NB-4; 5000 cells per well for HH; 5000 cells per well for RPMI-8402; 1500 cells per well for TANOUE; 9000 cells per well for TT; 2000 cells per well for HeLa; 3000 cells per well for MDA-MB-231; 3000 cells per well for FU-OV-1; 4000 cells per well for LOU-NH91; 2000 cells per well for 23132/87; 2000 cells per well for CAL-27; 1500 cells per well for BHY; 1500 cells per well for SCC-25; 700 cells per well for A-431; 1000 cells per well for HPEK; 500 cells per well for C2C12. The cells were treated with compounds at indicated final concentrations (diluted from the 1000× stock-solutions in DMSO to a final DMSO concentration of 0.1% v/v in H2O (Water For Injection, WFI, Fisherscientific #10378939)) or with the empty carrier DMSO at 0.1% v/v as control for 5 days. At day 5 after starting the treatments the cells were subjected to the alamarBlue® Proliferation Assay (Bio-Rad Serotec GmbH, BUF012B) according to the protocol of the manufacturer. The readout was taken with a multi-well plate-reader in the fluorescence mode with applying a filter for excitation at 560 nm (band width 10 nm) and for emission at 590 nm (band width 10 nm). Control treatments for growth inhibition with commercial compounds such as Methotrexate (MTREX) and Resveratrol (RES) were included on every plate. Some of the test compounds of the present invention were obtained and applied as their salts. According cases are indicated in the column “Specification” in Table 55 to Table 92 and by their sum formula in Table 93.
(§2) The assays were performed in duplicate or more replicates of independent single experiments each containing a six-fold replicate for every condition. For every individual plate, the measured fluorescence intensity values of the conditions with compound treatment were normalized against the corresponding equally weighted arithmetic mean of the fluorescence intensity values of the six DMSO treated control wells in order to obtain the relative values to a baseline level of 1.0.
(§3) Two independent outlier analyses were performed according to the methods by Peirce and Chauvenet (Ross, Journal of Engineering Technology 2003, 1-12). Outliers confirmed by at least one of the methods were excluded from the calculations but not more than one value out of six per compound within a single experiment. The weighted arithmetic mean (here abbreviated as AVEw) for each compound was calculated from the normalized values over all independent replicates of the single experiments comprising the six replicates each. The corresponding standard deviation for the weighted arithmetic mean was calculated according to the method described by Bronstein et al. (Bronstein, Semendjajew, Musiol, Müihlig, Taschenbuch der Mathematik, 5th edition 2001 (German), publisher: Verlag Harri Deutsch, Frankfurt am Main and Thun) and was combined with the Gauß' error propagation associated with the performed calculation for the normalization. The resulting standard deviation is herein referred to as “combined standard deviation”. […]
A general note: Alamar Blue is a resazurin reagent that responds to reducing activity.

Assay [2] deals with NB-4 cells (human acute promyelocytic leukemia cells). Kind of assay: Proliferation assay (alamarBlue) with NB-4 cells.
Description: as §1, §2, §3

The subject of assay [3] is HH cells (human cutaneous T-cell lymphoma cells). Kind of assay: Proliferation assay (alamarBlue) with HH cells.
Description: as §1, §2, §3

Assay [4] relates to RPMI-8402 cells (human T cell acute lymphoblastic leukemia cells). Kind of assay: Proliferation assay (alamarBlue) with RPMI-8402 cells.
Description: as §1, §2, §3

Assay [5] deals with TANOUE cells (human B cell leukemia cells). Nature of the assay: Proliferation assay (alamarBlue) with TANOUE cells.
Description: as §1, §2, §3

Assay [6] concerns TT cells (human medullary thyroid carcinoma cells). Nature of the assay: Proliferation assay (alamarBlue) with TT cells. The note with it: compound at 20 μM.
Description: as §1, §2, §3

As to `Oc1ccc(C=Cc2cc(O)cc(O)c2)cc1` [RES, Resveratrol], the “Activity Range: weighted arithmetic mean (AVEw) of normalized fluorescence intensity, proliferation assay with HL-60 cells” value in assay [1] (20 μM, relative to DMSO basis level 1.0, Table 55 (novel compounds)) is on record as 0.4 ± 0.1; in assay [1] (20 μM, relative to DMSO basis level 1.0, Table 56 (compounds disclosed in PCT/EP2018/054686)), 0.4 ± 0.1; in assay [1] (control at 40 μM, relative to DMSO basis level 1.0, Table 55), 0.2 ± 0.1; in assay [1] (control at 40 μM, relative to DMSO basis level 1.0, Table 56), 0.2 ± 0.1. Moreover, the “Activity Range: weighted arithmetic mean (AVEw) of normalized fluorescence intensity, proliferation assay with NB-4 cells” value in assay [2] (20 μM, relative to DMSO basis level 1.0, Table 57 (novel compounds)) is given as 0.1 ± 0.0; in assay [2] (20 μM, relative to DMSO basis level 1.0, Table 58 (compounds disclosed in PCT/EP2018/054686)) it was 0.1 ± 0.0; in assay [2] (control at 40 μM, relative to DMSO basis level 1.0, Table 57) it was 0.0 ± 0.0; in assay [2] (control at 40 μM, relative to DMSO basis level 1.0, Table 58), 0.0 ± 0.0. In addition, the “Activity Range: weighted arithmetic mean (AVEw) of normalized fluorescence intensity, proliferation assay with HH cells” value is recorded as 0.6 ± 0.1 in assay [3] (20 μM, relative to DMSO basis level 1.0, Table 59 (novel compounds)); 0.4 ± 0.1 in assay [3] (control at 40 μM, relative to DMSO basis level 1.0, Table 59); 0.4 ± 0.1 in assay [3] (control at 40 μM, relative to DMSO basis level 1.0, Table 60). In addition, the “Activity Range: weighted arithmetic mean (AVEw) of normalized fluorescence intensity, proliferation assay with RPMI-8402 cells” value in assay [4] (20 μM, relative to DMSO basis level 1.0, Table 61 (novel compounds)) worked out at 0.6 ± 0.0; in assay [4] (20 μM, relative to DMSO basis level 1.0, Table 62 (compounds disclosed in PCT/EP2018/054686)), 0.6 ± 0.0; in assay [4] (control at 40 μM, relative to DMSO basis level 1.0, Table 61), 0.1 ± 0.0; in assay [4] (control at 40 μM, relative to DMSO basis level 1.0, Table 62) it was 0.1 ± 0.0. In addition, the activity at 20 µM in assay [5] (Homo sapiens, B-cell, compound at 20 μM, Table 63 (novel compounds), read-out: Activity Range: weighted arithmetic mean (AVEw) of normalized fluorescence intensity relative to DMSO basis level 1.0) was 10%. Besides, the activity at 40 µM in assay [5] (Homo sapiens, B-cell, control at 40 μM, Table 63, read-out: Activity Range: weighted arithmetic mean (AVEw) of normalized fluorescence intensity relative to DMSO basis level 1.0) is 0%. Further, the “Activity Range: weighted arithmetic mean (AVEw) of normalized fluorescence intensity relative to DMSO basis level 1.0” value turned out to be 0.1 ± 0.0 in assay [5] (compound at 20 μM, Table 64 (compounds of PCT/EP2018/054686)); 0.0 ± 0.0 in assay [5] (control at 40 μM, Table 64); 0.9 ± 0.0 in assay [6] (Table 65 (novel compounds)); 0.9 ± 0.0 in assay [6] (Table 66 (compounds of PCT/EP2018/054686)).
